Results as given in PMC10905675, “INX-315, a Selective CDK2 Inhibitor, Induces Cell Cycle Arrest and Senescence in Solid Tumors” (Cancer Discovery, 2023).
Where two headings read alike, the source gives them in different places.

Columns and labels:
[1] = test system: MKN1 cells; assay: Cell cycle flow cytometry; format: cell-based; details: 24 hours, 100 nmol/L
[2] = pKa; format: physicochemical
[3] = Water solubility; format: physicochemical
[4] = target: T1, LRRK2 R1441C (Homo sapiens, UniProt Q5S007, R1441C); assay: SelectScreen Adapta; format: biochemical; details: INX-0315 at 100nM
T1 construct: purchased Thermo Fisher Scientific SelectScreen (plus Nanosyn / Reaction Biology for CDK/cyclin lines)
Source text: (§1) INX-315 was first evaluated in the SelectScreen Biochemical Kinase Profiling at Thermo Fisher Scientific (Madison, WI). The primary screen consisted of INX-315 dosed at a single concentration of 100 nmol/L in 1% DMSO across each platform within the SelectScreen array of assays, LanthaScreen Eu Kinase Binding Assay; AdaptaScreen; and Z'LyteScreen using preestablished conditions at Thermo Fisher Scientific as shown in Supplementary Table S2. […] The follow-up screen consisted of 10-point dose–response curves for INX-315 from 1 µmol/L to 0.0495 nmol/L.

[5] = target: T2, CDK6/cyclin D1 (Homo sapiens, UniProt Q00534); assay: SelectScreen Adapta; format: biochemical; details: INX-0315 at 100nM
T2 construct: purchased Thermo Fisher Scientific SelectScreen (plus Nanosyn / Reaction Biology for CDK/cyclin lines)
Source text: as §1

[6] = target: T3, PIK3C2B (PI3K-C2 beta) (Homo sapiens, UniProt O00750); assay: SelectScreen Adapta; format: biochemical; details: INX-0315 at 100nM
T3 construct: purchased Thermo Fisher Scientific SelectScreen (plus Nanosyn / Reaction Biology for CDK/cyclin lines)
Source text: as §1

[7] = target: T4, PIP5K1C (Homo sapiens, UniProt O60331); assay: SelectScreen Adapta; format: biochemical; details: INX-0315 at 100nM
T4 construct: purchased Thermo Fisher Scientific SelectScreen (plus Nanosyn / Reaction Biology for CDK/cyclin lines)
Source text: as §1

[8] = target: T5, CDK9/cyclin T1 (Homo sapiens, UniProt P50750); assay: SelectScreen Adapta; format: biochemical; details: INX-0315 at 100nM
T5 construct: purchased Carna 04-110
Source text: as §1

[9] = target: T6, PI4K2B (PI4K2 beta) (Homo sapiens, UniProt Q8TCG2); assay: SelectScreen Adapta; format: biochemical; details: INX-0315 at 100nM
T6 construct: purchased Thermo Fisher Scientific SelectScreen (plus Nanosyn / Reaction Biology for CDK/cyclin lines)
Source text: as §1

[10] = target: T7, PIP5K1A (Homo sapiens, UniProt Q99755); assay: SelectScreen Adapta; format: biochemical; details: INX-0315 at 100nM
T7 construct: purchased Thermo Fisher Scientific SelectScreen (plus Nanosyn / Reaction Biology for CDK/cyclin lines)
Source text: as §1

[11] = target: T8, PIK3CA E545K/PIK3R1 (p110 alpha E545K/p85 alpha) (Homo sapiens, UniProt P42336, E545K); assay: SelectScreen Adapta; format: biochemical; details: INX-0315 at 100nM
T8 construct: purchased Thermo Fisher Scientific SelectScreen (plus Nanosyn / Reaction Biology for CDK/cyclin lines)
T8 sequence (P42336 whole entry E545K): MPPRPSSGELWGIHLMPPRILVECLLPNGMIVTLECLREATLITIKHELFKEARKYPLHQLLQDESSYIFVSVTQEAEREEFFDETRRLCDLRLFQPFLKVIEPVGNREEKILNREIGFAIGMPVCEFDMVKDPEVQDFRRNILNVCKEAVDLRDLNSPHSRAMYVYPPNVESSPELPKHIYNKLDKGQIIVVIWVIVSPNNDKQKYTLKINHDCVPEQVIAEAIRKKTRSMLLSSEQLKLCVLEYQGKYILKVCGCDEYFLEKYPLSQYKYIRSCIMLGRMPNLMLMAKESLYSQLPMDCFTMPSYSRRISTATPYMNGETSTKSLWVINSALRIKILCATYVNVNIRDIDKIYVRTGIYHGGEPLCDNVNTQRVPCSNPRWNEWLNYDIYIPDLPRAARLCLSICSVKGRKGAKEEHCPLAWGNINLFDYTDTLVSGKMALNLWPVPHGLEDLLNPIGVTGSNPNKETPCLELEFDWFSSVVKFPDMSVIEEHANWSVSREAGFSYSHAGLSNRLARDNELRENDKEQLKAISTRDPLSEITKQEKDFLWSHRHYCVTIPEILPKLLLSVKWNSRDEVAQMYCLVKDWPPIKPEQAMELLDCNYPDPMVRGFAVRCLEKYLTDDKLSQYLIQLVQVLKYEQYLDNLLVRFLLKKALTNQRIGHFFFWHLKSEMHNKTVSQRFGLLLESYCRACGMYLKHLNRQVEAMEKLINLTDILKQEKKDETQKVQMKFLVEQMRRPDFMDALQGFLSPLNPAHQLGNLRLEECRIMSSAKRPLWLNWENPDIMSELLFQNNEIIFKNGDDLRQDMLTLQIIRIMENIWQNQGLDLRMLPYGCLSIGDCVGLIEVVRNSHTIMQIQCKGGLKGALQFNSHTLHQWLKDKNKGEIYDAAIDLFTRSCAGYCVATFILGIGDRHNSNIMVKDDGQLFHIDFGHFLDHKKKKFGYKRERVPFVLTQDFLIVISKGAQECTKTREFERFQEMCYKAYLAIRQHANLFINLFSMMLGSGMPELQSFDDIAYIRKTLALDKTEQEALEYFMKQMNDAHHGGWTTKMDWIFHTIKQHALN
T8 sequence (P27986 whole entry partner): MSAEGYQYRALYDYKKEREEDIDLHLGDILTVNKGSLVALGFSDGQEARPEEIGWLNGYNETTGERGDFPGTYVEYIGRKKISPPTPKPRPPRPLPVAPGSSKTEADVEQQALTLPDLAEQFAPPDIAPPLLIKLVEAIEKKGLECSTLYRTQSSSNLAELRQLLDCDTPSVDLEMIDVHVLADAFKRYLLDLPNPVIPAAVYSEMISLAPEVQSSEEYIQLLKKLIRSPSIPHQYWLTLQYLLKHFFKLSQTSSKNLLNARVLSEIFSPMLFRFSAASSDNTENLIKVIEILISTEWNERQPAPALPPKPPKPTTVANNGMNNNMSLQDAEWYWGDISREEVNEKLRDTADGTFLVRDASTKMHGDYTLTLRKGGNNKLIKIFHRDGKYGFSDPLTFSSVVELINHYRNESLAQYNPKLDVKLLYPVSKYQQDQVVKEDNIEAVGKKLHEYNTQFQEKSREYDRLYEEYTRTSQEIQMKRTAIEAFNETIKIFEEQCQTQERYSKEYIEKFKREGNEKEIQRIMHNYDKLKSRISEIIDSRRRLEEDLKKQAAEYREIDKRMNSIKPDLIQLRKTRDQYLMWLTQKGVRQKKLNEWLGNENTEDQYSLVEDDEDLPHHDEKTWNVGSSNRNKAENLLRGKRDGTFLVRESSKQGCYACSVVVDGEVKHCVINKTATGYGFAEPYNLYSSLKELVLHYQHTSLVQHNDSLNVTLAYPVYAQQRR
Source text: as §1

[12] = target: T9, PIK3C2G (PI3K-C2 gamma) (Homo sapiens, UniProt O75747); assay: SelectScreen Adapta; format: biochemical; details: INX-0315 at 100nM
T9 construct: purchased Thermo Fisher Scientific SelectScreen (plus Nanosyn / Reaction Biology for CDK/cyclin lines)
Source text: as §1

[13] = target: T10, LRRK2 (Homo sapiens, UniProt Q5S007); assay: SelectScreen Adapta; format: biochemical; details: INX-0315 at 100nM
T10 construct: purchased Thermo Fisher Scientific SelectScreen (plus Nanosyn / Reaction Biology for CDK/cyclin lines)
Source text: as §1

[14] = target: T11, SPHK2 (Homo sapiens, UniProt Q9NRA0); assay: SelectScreen Adapta; format: biochemical; details: INX-0315 at 100nM
T11 construct: purchased Thermo Fisher Scientific SelectScreen (plus Nanosyn / Reaction Biology for CDK/cyclin lines)
T11 sequence (Q9NRA0 whole entry): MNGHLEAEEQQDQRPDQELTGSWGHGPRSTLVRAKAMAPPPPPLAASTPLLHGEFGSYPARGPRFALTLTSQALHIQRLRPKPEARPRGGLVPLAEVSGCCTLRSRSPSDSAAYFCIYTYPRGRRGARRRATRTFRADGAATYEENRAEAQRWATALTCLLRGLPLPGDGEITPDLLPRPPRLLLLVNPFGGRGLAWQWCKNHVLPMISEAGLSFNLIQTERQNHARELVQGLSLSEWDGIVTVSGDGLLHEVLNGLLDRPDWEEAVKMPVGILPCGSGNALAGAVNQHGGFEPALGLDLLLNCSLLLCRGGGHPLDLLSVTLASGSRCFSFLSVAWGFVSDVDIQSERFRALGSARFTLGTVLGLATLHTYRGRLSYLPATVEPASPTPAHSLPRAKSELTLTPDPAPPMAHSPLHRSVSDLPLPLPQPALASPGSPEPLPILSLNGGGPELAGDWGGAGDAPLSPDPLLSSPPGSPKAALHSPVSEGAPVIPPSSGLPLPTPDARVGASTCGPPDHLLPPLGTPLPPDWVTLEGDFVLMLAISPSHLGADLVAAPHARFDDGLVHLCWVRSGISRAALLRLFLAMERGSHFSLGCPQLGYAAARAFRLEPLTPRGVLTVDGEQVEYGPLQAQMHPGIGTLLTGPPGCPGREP
Source text: as §1

[15] = target: T12, CDK4/cyclin D1 (Homo sapiens, UniProt P11802); assay: SelectScreen Adapta; format: biochemical; details: INX-0315 at 100nM
T12 construct: purchased ThermoFisher PV4400
Source text: as §1

[16] = target: T13, DAPK1 (Homo sapiens, UniProt P53355); assay: SelectScreen Adapta; format: biochemical; details: INX-0315 at 100nM
T13 construct: purchased Thermo Fisher Scientific SelectScreen (plus Nanosyn / Reaction Biology for CDK/cyclin lines)
Source text: as §1

[17] = target: T14, PIK3CA/PIK3R1 (p110 alpha/p85 alpha) (Homo sapiens, UniProt P42336); assay: SelectScreen Adapta; format: biochemical; details: INX-0315 at 100nM
T14 construct: purchased Thermo Fisher Scientific SelectScreen (plus Nanosyn / Reaction Biology for CDK/cyclin lines)
T14 sequence (P42336 whole entry): as the sequence (P42336 whole entry E545K) above, with K545E counted along it
T14 sequence (P27986 whole entry partner): as the sequence (P27986 whole entry partner) above
Source text: as §1

[18] = target: T15, CHUK (IKK alpha) (Homo sapiens, UniProt O15111); assay: SelectScreen Adapta; format: biochemical; details: INX-0315 at 100nM
T15 construct: purchased Thermo Fisher Scientific SelectScreen (plus Nanosyn / Reaction Biology for CDK/cyclin lines)
Source text: as §1

[19] = target: T16, PI4K2A (PI4K2 alpha) (Homo sapiens, UniProt Q9BTU6); assay: SelectScreen Adapta; format: biochemical; details: INX-0315 at 100nM
T16 construct: purchased Thermo Fisher Scientific SelectScreen (plus Nanosyn / Reaction Biology for CDK/cyclin lines)
Source text: as §1

[20] = target: T17, PIP5K1B (Homo sapiens, UniProt O14986); assay: SelectScreen Adapta; format: biochemical; details: INX-0315 at 100nM
T17 construct: purchased Thermo Fisher Scientific SelectScreen (plus Nanosyn / Reaction Biology for CDK/cyclin lines)
T17 sequence (O14986 whole entry): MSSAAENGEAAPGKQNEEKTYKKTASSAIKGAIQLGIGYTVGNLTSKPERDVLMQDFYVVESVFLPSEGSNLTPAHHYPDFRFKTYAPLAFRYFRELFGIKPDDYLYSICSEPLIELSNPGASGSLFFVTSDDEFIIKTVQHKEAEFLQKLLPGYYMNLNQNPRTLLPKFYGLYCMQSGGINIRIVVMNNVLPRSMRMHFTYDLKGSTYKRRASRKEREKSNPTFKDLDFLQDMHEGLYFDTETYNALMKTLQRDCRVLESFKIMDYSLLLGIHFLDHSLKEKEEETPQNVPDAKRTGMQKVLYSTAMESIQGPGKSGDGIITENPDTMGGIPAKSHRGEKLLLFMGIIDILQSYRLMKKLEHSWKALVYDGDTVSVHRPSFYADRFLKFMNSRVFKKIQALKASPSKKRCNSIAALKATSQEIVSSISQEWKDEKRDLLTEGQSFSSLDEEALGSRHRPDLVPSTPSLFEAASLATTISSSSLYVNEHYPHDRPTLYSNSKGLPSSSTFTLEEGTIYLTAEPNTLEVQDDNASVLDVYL
Source text: as §1

[21] = target: T18, LRRK2 G2019S (Homo sapiens, UniProt Q5S007, G2019S); assay: SelectScreen Adapta; format: biochemical; details: INX-0315 at 100nM
T18 construct: purchased Thermo Fisher Scientific SelectScreen (plus Nanosyn / Reaction Biology for CDK/cyclin lines)
Source text: as §1

[22] = target: T19, PIK3CA/PIK3R3 (p110 alpha/p55 gamma) (Homo sapiens, UniProt P42336); assay: SelectScreen Adapta; format: biochemical; details: INX-0315 at 100nM
T19 construct: purchased Thermo Fisher Scientific SelectScreen (plus Nanosyn / Reaction Biology for CDK/cyclin lines)
T19 sequence (P42336 whole entry): as the sequence (P42336 whole entry E545K) above, with K545E counted along it
Source text: as §1

[23] = target: T20, LRRK2 FL (Homo sapiens, UniProt Q5S007); assay: SelectScreen Adapta; format: biochemical; details: INX-0315 at 100nM
T20 construct: purchased Thermo Fisher Scientific SelectScreen (plus Nanosyn / Reaction Biology for CDK/cyclin lines)
Source text: as §1

[24] = target: T21, PIK3C2A (PI3K-C2 alpha) (Homo sapiens, UniProt O00443); assay: SelectScreen Adapta; format: biochemical; details: INX-0315 at 100nM
T21 construct: purchased Thermo Fisher Scientific SelectScreen (plus Nanosyn / Reaction Biology for CDK/cyclin lines)
Source text: as §1

[25] = target: T22, PI4KA (PI4K alpha) (Homo sapiens, UniProt P42356); assay: SelectScreen Adapta; format: biochemical; details: INX-0315 at 100nM
T22 construct: purchased Thermo Fisher Scientific SelectScreen (plus Nanosyn / Reaction Biology for CDK/cyclin lines)
Source text: as §1

[26] = target: T23, PI4KB (PI4K beta) (Homo sapiens, UniProt Q9UBF8); assay: SelectScreen Adapta; format: biochemical; details: INX-0315 at 100nM
T23 construct: purchased Thermo Fisher Scientific SelectScreen (plus Nanosyn / Reaction Biology for CDK/cyclin lines)
Source text: as §1

[27] = target: T24, PIK3CD/PIK3R1 (p110 delta/p85 alpha) (Homo sapiens, UniProt O00329); assay: SelectScreen Adapta; format: biochemical; details: INX-0315 at 100nM
T24 construct: purchased Thermo Fisher Scientific SelectScreen (plus Nanosyn / Reaction Biology for CDK/cyclin lines)
Source text: as §1

[28] = target: T25, PIP4K2A (Homo sapiens, UniProt P48426); assay: SelectScreen Adapta; format: biochemical; details: INX-0315 at 100nM
T25 construct: purchased Thermo Fisher Scientific SelectScreen (plus Nanosyn / Reaction Biology for CDK/cyclin lines)
Source text: as §1

[29] = target: T26, PIK3CB/PIK3R1 (p110 beta/p85 alpha) (Homo sapiens, UniProt P42338); assay: SelectScreen Adapta; format: biochemical; details: INX-0315 at 100nM
T26 construct: purchased Thermo Fisher Scientific SelectScreen (plus Nanosyn / Reaction Biology for CDK/cyclin lines)
Source text: as §1

[30] = target: T27, PIK3CA E542K/PIK3R1 (p110 alpha E542K/p85 alpha) (Homo sapiens, UniProt P42336, E542K); assay: SelectScreen Adapta; format: biochemical; details: INX-0315 at 100nM
T27 construct: purchased Thermo Fisher Scientific SelectScreen (plus Nanosyn / Reaction Biology for CDK/cyclin lines)
T27 sequence (P42336 whole entry E542K): as the sequence (P42336 whole entry E545K) above, with E542K, K545E counted along it
T27 sequence (P27986 whole entry partner): as the sequence (P27986 whole entry partner) above
Source text: as §1

[31] = target: T28, LRRK2 I2020T (Homo sapiens, UniProt Q5S007, I2020T); assay: SelectScreen Adapta; format: biochemical; details: INX-0315 at 100nM
T28 construct: purchased Thermo Fisher Scientific SelectScreen (plus Nanosyn / Reaction Biology for CDK/cyclin lines)
Source text: as §1

[32] = target: T29, IRAK1 (Homo sapiens, UniProt P51617); assay: SelectScreen Adapta; format: biochemical; details: INX-0315 at 100nM
T29 construct: purchased Thermo Fisher Scientific SelectScreen (plus Nanosyn / Reaction Biology for CDK/cyclin lines)
T29 sequence (P51617 whole entry): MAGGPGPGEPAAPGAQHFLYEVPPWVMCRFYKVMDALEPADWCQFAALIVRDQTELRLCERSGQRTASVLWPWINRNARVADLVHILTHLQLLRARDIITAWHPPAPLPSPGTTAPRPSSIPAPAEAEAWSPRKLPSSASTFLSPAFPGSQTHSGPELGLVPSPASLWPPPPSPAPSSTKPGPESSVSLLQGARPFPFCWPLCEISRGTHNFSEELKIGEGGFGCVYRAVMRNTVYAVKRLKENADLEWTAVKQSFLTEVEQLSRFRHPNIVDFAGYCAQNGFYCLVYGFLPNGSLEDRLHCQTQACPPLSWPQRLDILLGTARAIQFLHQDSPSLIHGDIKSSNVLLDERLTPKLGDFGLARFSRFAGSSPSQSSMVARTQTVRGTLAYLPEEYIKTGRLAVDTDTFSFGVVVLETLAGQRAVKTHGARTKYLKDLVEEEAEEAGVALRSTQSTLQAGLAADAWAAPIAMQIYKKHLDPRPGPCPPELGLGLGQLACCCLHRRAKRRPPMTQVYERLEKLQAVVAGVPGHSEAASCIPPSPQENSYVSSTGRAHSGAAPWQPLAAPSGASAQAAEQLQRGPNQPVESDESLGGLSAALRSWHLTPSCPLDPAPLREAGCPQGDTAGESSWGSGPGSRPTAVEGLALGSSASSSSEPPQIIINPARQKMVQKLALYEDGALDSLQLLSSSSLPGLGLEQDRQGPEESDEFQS
Source text: as §1

[33] = target: T30, CAMK1 (CaMK1) (Homo sapiens, UniProt Q14012); assay: SelectScreen Adapta; format: biochemical; details: INX-0315 at 100nM
T30 construct: purchased Thermo Fisher Scientific SelectScreen (plus Nanosyn / Reaction Biology for CDK/cyclin lines)
Source text: as §1

[34] = target: T31, NUAK1 (ARK5) (Homo sapiens, UniProt O60285); assay: SelectScreen Adapta; format: biochemical; details: INX-0315 at 100nM
T31 construct: purchased Thermo Fisher Scientific SelectScreen (plus Nanosyn / Reaction Biology for CDK/cyclin lines)
T31 sequence (O60285 whole entry): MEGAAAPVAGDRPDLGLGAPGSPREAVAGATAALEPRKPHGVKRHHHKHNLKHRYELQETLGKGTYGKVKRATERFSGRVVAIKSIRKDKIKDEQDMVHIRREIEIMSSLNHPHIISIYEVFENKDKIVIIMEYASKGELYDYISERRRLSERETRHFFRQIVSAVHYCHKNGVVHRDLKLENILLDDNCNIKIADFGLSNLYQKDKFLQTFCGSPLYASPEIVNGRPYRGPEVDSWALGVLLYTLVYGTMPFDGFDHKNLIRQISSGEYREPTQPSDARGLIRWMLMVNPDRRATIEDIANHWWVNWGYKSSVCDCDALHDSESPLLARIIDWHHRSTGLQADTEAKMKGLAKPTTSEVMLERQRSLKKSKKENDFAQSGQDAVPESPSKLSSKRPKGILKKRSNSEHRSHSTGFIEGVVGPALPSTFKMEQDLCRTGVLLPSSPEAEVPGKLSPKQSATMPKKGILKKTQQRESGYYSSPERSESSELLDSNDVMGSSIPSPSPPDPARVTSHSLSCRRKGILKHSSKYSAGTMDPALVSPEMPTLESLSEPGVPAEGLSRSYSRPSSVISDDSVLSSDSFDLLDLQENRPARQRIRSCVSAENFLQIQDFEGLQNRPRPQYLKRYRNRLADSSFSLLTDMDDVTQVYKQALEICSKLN
Source text: as §1

[35] = target: T32, CDK4/cyclin D3 (Homo sapiens, UniProt P11802); assay: SelectScreen Adapta; format: biochemical; details: INX-0315 at 100nM
T32 construct: purchased Thermo Fisher Scientific SelectScreen (plus Nanosyn / Reaction Biology for CDK/cyclin lines)
Source text: as §1

Structure (SMILES): NS(=O)(=O)c1ccc(Nc2ncc3cc4n(c3n2)C2(CCCCC2)C(=O)NN4)cc1 [INX-315]
- cell cycle effect [1]: strong G1 arrest
- pKa ([2]; read-out: pKa (acidic)): 10.4
- pKa ([2]; read-out: pKa (basic)): 5.08
- solubility [3]: < 50 µg/mL
- inhibition at 0.1 µM [4]: 22%
- inhibition at 0.1 µM [5]: 15%
- inhibition at 0.1 µM [6]: -14%
- inhibition at 0.1 µM [7]: 4%
- inhibition at 0.1 µM [8]: 52%
- inhibition at 0.1 µM [9]: -2%
- inhibition at 0.1 µM [10]: 6%
- inhibition at 0.1 µM [11]: 0%
- inhibition at 0.1 µM [12]: 6%
- inhibition at 0.1 µM [13]: 29%
- inhibition at 0.1 µM [14]: -19%
- inhibition at 0.1 µM [15]: 24%
- inhibition at 0.1 µM [16]: -8%
- inhibition at 0.1 µM [17]: 11%
- inhibition at 0.1 µM [18]: -7%
- inhibition at 0.1 µM [19]: 0%
- inhibition at 0.1 µM [20]: 38%
- inhibition at 0.1 µM [21]: 34%
- inhibition at 0.1 µM [22]: -2%
- inhibition at 0.1 µM [23]: 37%
- inhibition at 0.1 µM [24]: -1%
- inhibition at 0.1 µM [25]: -11%
- inhibition at 0.1 µM [26]: 2%
- inhibition at 0.1 µM [27]: -10%
- inhibition at 0.1 µM [28]: 7%
- inhibition at 0.1 µM [29]: -17%
- inhibition at 0.1 µM [30]: -1%
- inhibition at 0.1 µM [31]: 28%
- inhibition at 0.1 µM [32]: 6%
- inhibition at 0.1 µM [33]: -17%
- inhibition at 0.1 µM [34]: 68%
- inhibition at 0.1 µM [35]: 22%
